Measurements taken from the supplement of paper PMC11061612.

What was measured:
[1] = test system: OSC-20 (Oral Cavity Carcinoma); assay: Bliss excess, mean over the matrix (fraction); higher = more synergy
Procedure, shortened: (§1)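 After 24 hours at 37°C and 5% CO2 in 1536-well plates, cells in DMEM/F12 or RPMI plus 10% FBS received two-drug dose matrices for 72 hours. Viability came from CellTiter-Glo 2.0 luminescence and was scaled as inhibition, anchored at 0 by vehicle wells and at 1 by blank wells. Combination Emax is taken as the second-highest inhibition in the matrix, and Bliss excess as the observed combination effect less EA + EB − EA·EB, with EA and EB the single-agent effects.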

[2] = test system: HGC-27 (Gastric Carcinoma); assay: combination Emax (second highest fraction inhibited in the dose matrix, 72 h); higher = more inhibition; extreme values may be limits of the assay
Procedure, shortened: as §1

[3] = test system: SU8686 (Pancreatic Carcinoma); assay: as above
Procedure, shortened: as §1

[4] = test system: OVCAR-4 (Ovarian Carcinoma); assay: as above
Procedure, shortened: as §1

[5] = test system: Caov-4 (Ovarian Carcinoma); assay: as above
Procedure, shortened: as §1

[6] = test system: OE19 (Esophageal Adenocarcinoma); assay: as above
Procedure, shortened: as §1

[7] = test system: HOP-62 (Lung Adenocarcinoma); assay: as above
Procedure, shortened: as §1

[8] = test system: Ca9-22 (Head and Neck Carcinoma); assay: as above
Procedure, shortened: as §1

[9] = test system: MIA-PaCa-2 (Pancreatic Carcinoma); assay: as above
Procedure, shortened: as §1

D-263MG (Glioblastoma) = assay: as above
Procedure, shortened: as §1

[10] = test system: MLMA (Other Blood Carcinomas); assay: as above
Procedure, shortened: as §1

[11] = test system: OSC-20 (Oral Cavity Carcinoma); assay: as above
Procedure, shortened: as §1

[12] = test system: EFM-19 (Breast Carcinoma); assay: as above
Procedure, shortened: as §1

TK10 (Kidney Carcinoma) = assay: as above
Procedure, shortened: as §1

YH-13 (Glioblastoma) = assay: as above
Procedure, shortened: as §1

[13] = test system: PANC-04-03 (Pancreatic Carcinoma); assay: as above
Procedure, shortened: as §1

TGW (Neuroblastoma) = assay: as above
Procedure, shortened: as §1

[14] = test system: NCI-H727 (Other Solid Carcinomas); assay: as above
Procedure, shortened: as §1

NB69 (Neuroblastoma) = assay: as above
Procedure, shortened: as §1

[15] = test system: BT-549 (Breast Carcinoma); assay: as above
Procedure, shortened: as §1
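Wherever Bliss excess, mean over the matrix is given: after 72 h of two-drug dosing.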

| Structure (SMILES) | Bliss excess [1] | combination Emax [2] | combination Emax [3] | combination Emax [4] | combination Emax [5] | combination Emax [6] | combination Emax [7] | combination Emax [8] | combination Emax [9] | combination Emax (D-263MG (Glioblastoma)) | combination Emax [10] | combination Emax [11] | combination Emax [12] | combination Emax (TK10 (Kidney Carcinoma)) | combination Emax (YH-13 (Glioblastoma)) | combination Emax [13] | combination Emax (TGW (Neuroblastoma)) | combination Emax [14] | combination Emax (NB69 (Neuroblastoma)) | combination Emax [15] |
| --- | --- | --- | --- | --- | --- | --- | --- | --- | --- | --- | --- | --- | --- | --- | --- | --- | --- | --- | --- | --- |
| COc1nnc2ccc(N3CCC(c4ccc(OCCN5CCN(C)C(=O)[C@H]5C)cc4)CC3)nn12 [AZD5153] + Cn1cnc2c(F)c(Nc3ccc(Br)cc3Cl)c(C(=O)NOCCO)cc21 [Selumetinib] (first compound max 1 µM, 7x7, partner max 10 µM) | -0.0816 | 0.796 | 0.241 | 0.492 | 0.706 | 0.631 | 0.668 | 0.699 | 0.859 | 0.441 | 0.906 | 0.23 | 0.28 | 0.604 | 0.546 | 0.548 | 0.602 | 0.678 | 1 | 0.518 |
| C=CCn1c(=O)c2cnc(Nc3ccc(N4CCN(C)CC4)cc3)nc2n1-c1cccc(C(C)(C)O)n1 [AZD1775] + C[C@@H]1COCCN1C2=NC(=NC(=C2)C3(CC3)[S@](=N)(=O)C)C4=C5C=CNC5=NC=C4 [AZD6738] (first compound max 1 µM, partner max 10 µM) | 0.0026 | 0.966 | 0.384 | 0.843 | 0.902 | 0.918 | 0.668 | 0.957 | 0.956 | 0.908 | 0.935 | 0.401 | 0.672 | 0.698 | 0.69 | 0.63 | 0.97 | 0.654 | 0.971 | 0.808 |
| CC1(C)CCC(CN2CCN(c3ccc(C(=O)NS(=O)(=O)c4ccc(NCC5CCOCC5)c([N+](=O)[O-])c4)c(Oc4cnc5[nH]ccc5c4)c3)CC2)=C(c2ccc(Cl)cc2)C1 [Venetoclax] + C[C@@H]1COCCN1C2=NC(=NC(=C2)C3(CC3)[S@](=N)(=O)C)C4=C5C=CNC5=NC=C4 [AZD6738] (first compound max 1 µM, 7x7, partner max 10 µM) | -0.0599 | 0.8 | 0.0868 | 0.684 | 0.751 | 0.673 | 0.624 | 0.865 | 0.666 | 0.515 | 0.909 | 0.425 | 0.495 | 0.609 | 0.5 | 0.443 | 0.715 | 0.616 | 0.884 | 0.52 |
| COc1cccc(OCCCN)c1-c1cc(Nc2cnc(C#N)cn2)n[nH]1 [Prexasertib] + C=CCn1c(=O)c2cnc(Nc3ccc(N4CCN(C)CC4)cc3)nc2n1-c1cccc(C(C)(C)O)n1 [AZD1775] (first compound max 1 µM, partner max 1 µM) | -0.0076 | 0.991 | 0.531 | 0.866 | 0.98 | 0.943 | 0.627 | 1 | 0.987 | 0.888 | 0.963 | 0.534 | 0.62 | 0.661 | 0.858 | 0.627 | 0.999 | 0.701 | 1 | 0.845 |
| CC1(C)CCC(CN2CCN(c3ccc(C(=O)NS(=O)(=O)c4ccc(NCC5CCOCC5)c([N+](=O)[O-])c4)c(Oc4cnc5[nH]ccc5c4)c3)CC2)=C(c2ccc(Cl)cc2)C1 [Venetoclax] + CCN(CCO)CCCOc1ccc2c(Nc3cc(CC(=O)Nc4cccc(F)c4)[nH]n3)ncnc2c1 [AZD2811] (first compound max 1 µM, 7x7, partner max 1 µM) | -0.0372 | 0.809 | 0.158 | 0.333 | 0.263 | 0.779 | 0.342 | 0.236 | 0.37 | 0.323 | 0.841 | 0.336 | 0.541 | 0.16 | 0.576 | 0.196 | 0.568 | 0.317 | 0.777 | 0.336 |
| CC(=O)c1c(C)c2cnc(Nc3ccc(N4CCNCC4)cn3)nc2n(C2CCCC2)c1=O [Palbociclib] + Cn1cnc2c(F)c(Nc3ccc(Br)cc3Cl)c(C(=O)NOCCO)cc21 [Selumetinib] (first compound max 10 µM, 7x7, partner max 10 µM) | -0.0566 | 0.617 | 0.173 | 0.286 | 0.585 | 0.332 | 0.471 | 0.458 | 0.604 | 0.265 | 0.769 | 0.182 | 0.162 | 0.427 | 0.387 | 0.404 | 0.342 | 0.636 | 0.988 | 0.226 |
| Cn1cnc2c(F)c(Nc3ccc(Br)cc3Cl)c(C(=O)NOCCO)cc21 [Selumetinib] + C[C@@H]1COCCN1C2=NC(=NC(=C2)C3(CC3)[S@](=N)(=O)C)C4=C5C=CNC5=NC=C4 [AZD6738] (first compound max 10 µM, 7x7, partner max 10 µM) | -0.0613 | 0.734 | 0.113 | 0.532 | 0.76 | 0.606 | 0.569 | 0.869 | 0.686 | 0.359 | 0.596 | 0.295 | 0.138 | 0.573 | 0.51 | 0.516 | 0.577 | 0.652 | 0.999 | 0.464 |
| Cc1c2c(nn1C)CSCc1cc(n(C)n1)CSc1cc(c3ccccc3c1)OCCCc1c(C(=O)O)n(C)c3c-2c(Cl)ccc13 [AZD5991] + Cc1cc2ncnn2cc1Nc1ncc2c(n1)n(C1CCOCC1)c(=O)n2C [AZD7648] (first compound max 1 µM, 7x7, partner max 10 µM) | -0.0567 | 0.603 | 0.127 | 0.255 | 0.57 | 0.424 | 0.281 | 0.214 | 0.354 | 0.75 | 0.439 | 0.257 | 0.629 | 0.385 | 0.351 | 0.342 | 0.339 | 0.277 | 0.779 | 0.329 |
| Cn1cnc2c(F)c(Nc3ccc(Br)cc3Cl)c(C(=O)NOCCO)cc21 [Selumetinib] + C=CCn1c(=O)c2cnc(Nc3ccc(N4CCN(C)CC4)cc3)nc2n1-c1cccc(C(C)(C)O)n1 [AZD1775] (first compound max 10 µM, partner max 1 µM) | -0.019 | 0.536 | 0.126 | 0.546 | 0.764 | 0.28 | 0.487 | 0.55 | 0.767 | 0.218 | 0.769 | 0.27 | 0.321 | 0.478 | 0.329 | 0.456 | 0.566 | 0.614 | 0.944 | 0.715 |
| Cc1c2c(nn1C)CSCc1cc(n(C)n1)CSc1cc(c3ccccc3c1)OCCCc1c(C(=O)O)n(C)c3c-2c(Cl)ccc13 [AZD5991] + C[C@@H](Nc1cc(F)cc(F)c1)c1cc(C(=O)N(C)C)cc2c(=O)cc(N3CCOCC3)oc12 [AZD8186] (first compound max 1 µM, 7x7, partner max 3 µM) | -0.0335 | 0.691 | 0.378 | 0.288 | 0.507 | 0.49 | 0.281 | 0.521 | 0.336 | 0.975 | 0.532 | 0.237 | 0.586 | 0.419 | 0.585 | 0.266 | 0.347 | 0.274 | 0.894 | 0.476 |
| Cc1c2c(nn1C)CSCc1cc(n(C)n1)CSc1cc(c3ccccc3c1)OCCCc1c(C(=O)O)n(C)c3c-2c(Cl)ccc13 [AZD5991] + C1CN(CCC1(C(=O)N[C@@H](CCO)C2=CC=C(C=C2)Cl)N)C3=NC=NC4=C3C=CN4 [Capivasertib] (first compound max 1 µM, 7x7, partner max 3 µM) | 0.0036 | 0.861 | 0.129 | 0.18 | 0.493 | 0.442 | 0.257 | 0.242 | 0.244 | 0.958 | 0.407 | 0.199 | 0.629 | 0.257 | 0.265 | 0.186 | 0.326 | 0.374 | 0.794 | 0.432 |
| NC1(C(=O)N[C@@H](CCO)c2ccc(Cl)cc2)CCN(c2ncnc3[nH]ccc23)CC1 [Capivasertib] + Cn1cnc2c(F)c(Nc3ccc(Br)cc3Cl)c(C(=O)NOCCO)cc21 [Selumetinib] (first compound max 10 µM, 7x7, partner max 10 µM) | 0.0384 | 0.841 | 0.26 | 0.338 | 0.613 | 0.573 | 0.644 | 0.554 | 0.643 | 0.518 | 0.513 | 0.451 | 0.477 | 0.534 | 0.598 | 0.576 | 0.262 | 0.729 | 0.903 | 0.41 |
| CCN(CCO)CCCOc1ccc2c(Nc3cc(CC(=O)Nc4cccc(F)c4)[nH]n3)ncnc2c1 [AZD2811] + O=C(c1cc(Cc2n[nH]c(=O)c3ccccc23)ccc1F)N1CCN(C(=O)C2CC2)CC1 [Olaparib] (first compound max 1 µM, 7x7, partner max 10 µM) | -0.0196 | 0.915 | 0.145 | 0.227 | 0.19 | 0.714 | 0.155 | 0.195 | 0.469 | 0.418 | 0.223 | 0.382 | 0.322 | 0.189 | 0.474 | 0.227 | 0.532 | 0.346 | 0.659 | 0.244 |
